Data as given in article PMC2841478 (Journal of medicinal chemistry, 2008).
“Also recorded” adds a separate entry of the source. Where two headings read alike, the source gives them in different places.

How the values were obtained:
[1] = biological target: T1, norepinephrine transporter (NET) (Rattus norvegicus, UniProt Q63380); experiment: Competitive binding at the NET with [3H]nisoxetine
[2] = biological target: T2, serotonin transporter (5-HTT) (Rattus norvegicus, UniProt P31652); experiment: Competitive binding at the 5-HTT with [3H]paroxetine
[3] = biological target: T3, dopamine transporter (DAT) (Rattus norvegicus, UniProt P23977); experiment: Competitive binding at the DAT with [3H]WIN 35,428
[4] = test system: cocaine self-administration; conditions: rhesus monkeys, multiple second-order schedule; cited from earlier work
[5] = biological target: T1, norepinephrine transporter (NET); conditions: read-out: NET, Ki [3H]nisoxetine; comparison data; cited from earlier work
[6] = biological target: T2, serotonin transporter (5-HTT); conditions: read-out: 5-HTT, Ki [3H]paroxetine; comparison data; cited from earlier work
[7] = test system: reinforcement; conditions: squirrel monkeys; cited from earlier work
[8] = test system: dopamine transporter (DAT); conditions: cited from earlier work
[9] = test system: drug self-administration; conditions: three rhesus monkeys; cited from earlier work
[10] = biological target: T3, dopamine transporter (DAT); conditions: read-out: DAT, IC50 [3H]12; comparison data; cited from earlier work

T2 sequence (P31652 whole entry): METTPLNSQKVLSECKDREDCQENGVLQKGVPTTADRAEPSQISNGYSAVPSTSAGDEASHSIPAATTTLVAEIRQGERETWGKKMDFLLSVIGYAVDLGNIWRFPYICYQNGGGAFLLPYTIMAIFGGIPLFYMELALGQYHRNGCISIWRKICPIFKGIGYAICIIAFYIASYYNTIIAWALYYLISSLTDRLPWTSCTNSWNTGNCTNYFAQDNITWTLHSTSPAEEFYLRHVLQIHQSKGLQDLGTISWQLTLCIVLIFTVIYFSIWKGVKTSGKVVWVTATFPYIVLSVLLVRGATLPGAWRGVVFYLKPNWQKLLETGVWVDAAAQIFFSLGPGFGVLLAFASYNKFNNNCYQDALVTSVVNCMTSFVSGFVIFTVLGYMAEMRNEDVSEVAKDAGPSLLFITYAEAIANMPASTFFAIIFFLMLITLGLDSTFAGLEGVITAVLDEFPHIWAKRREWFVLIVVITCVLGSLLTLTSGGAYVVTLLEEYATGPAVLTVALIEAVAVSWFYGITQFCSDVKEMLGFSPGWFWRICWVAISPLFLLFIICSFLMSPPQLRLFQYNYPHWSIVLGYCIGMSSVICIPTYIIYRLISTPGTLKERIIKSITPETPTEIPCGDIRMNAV
T1 sequence (Q63380 1-617): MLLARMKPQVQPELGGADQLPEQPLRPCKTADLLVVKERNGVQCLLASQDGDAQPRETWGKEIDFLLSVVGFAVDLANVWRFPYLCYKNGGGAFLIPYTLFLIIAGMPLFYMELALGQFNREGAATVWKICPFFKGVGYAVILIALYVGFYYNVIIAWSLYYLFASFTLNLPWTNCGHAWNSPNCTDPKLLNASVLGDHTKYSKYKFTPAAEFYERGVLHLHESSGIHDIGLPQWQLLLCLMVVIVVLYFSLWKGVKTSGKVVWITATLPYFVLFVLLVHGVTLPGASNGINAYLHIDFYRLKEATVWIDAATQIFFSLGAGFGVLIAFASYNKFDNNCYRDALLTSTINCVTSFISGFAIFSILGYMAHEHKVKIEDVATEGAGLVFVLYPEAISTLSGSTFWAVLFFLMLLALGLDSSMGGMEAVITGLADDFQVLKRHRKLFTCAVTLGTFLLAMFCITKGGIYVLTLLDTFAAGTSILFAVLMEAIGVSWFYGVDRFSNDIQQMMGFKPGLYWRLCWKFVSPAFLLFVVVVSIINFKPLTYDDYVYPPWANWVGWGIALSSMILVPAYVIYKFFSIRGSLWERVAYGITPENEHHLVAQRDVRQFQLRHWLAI
T3 sequence (P23977 whole entry): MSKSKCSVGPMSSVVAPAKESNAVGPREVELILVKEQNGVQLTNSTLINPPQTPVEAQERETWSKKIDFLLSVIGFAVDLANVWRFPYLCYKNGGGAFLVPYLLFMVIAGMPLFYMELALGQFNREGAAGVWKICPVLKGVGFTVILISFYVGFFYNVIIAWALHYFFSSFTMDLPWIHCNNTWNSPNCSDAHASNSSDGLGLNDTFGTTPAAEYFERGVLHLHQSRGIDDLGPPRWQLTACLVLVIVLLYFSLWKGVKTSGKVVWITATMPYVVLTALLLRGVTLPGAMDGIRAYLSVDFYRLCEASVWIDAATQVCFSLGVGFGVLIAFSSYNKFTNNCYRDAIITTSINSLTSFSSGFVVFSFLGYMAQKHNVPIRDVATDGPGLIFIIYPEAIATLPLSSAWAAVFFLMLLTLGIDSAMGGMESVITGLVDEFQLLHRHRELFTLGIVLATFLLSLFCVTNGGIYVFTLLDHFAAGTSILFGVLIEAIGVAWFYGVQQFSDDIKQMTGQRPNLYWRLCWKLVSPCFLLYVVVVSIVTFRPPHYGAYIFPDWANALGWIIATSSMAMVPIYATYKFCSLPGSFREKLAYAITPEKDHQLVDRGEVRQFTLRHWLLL

Compound | Ki [1] | Ki [2] | also measured
COC(=O)[C@H]1[C@@H](c2ccc(OC)c(Br)c2)C[C@@H]2CC[C@H]1N2C [7d, 3β-(3-Bromo-4-methoxyphenyl)tropane-2β-carboxylic Acid Methyl Ester] | 160 ± 20 nM | 3.1 ± 0.1 nM | –
COc1ccc([C@H]2C[C@@H]3CC[C@H]([C@H]2C(=O)OCCc2cc(I)c(N)c(I)c2)N3C)cc1 [8j, 3β-(4-Methoxyphenyl)tropane-2β-carboxylic Acid 2-(3,5-Diiodo-4-aminophenyl)ethyl Ester] | 2600 ± 200 nM | 1 ± 0.1 nM | IC50 [3]: 100 nM
CCOc1ccc([C@H]2C[C@@H]3CC[C@H]([C@H]2C(=O)OC)N3C)cc1 [7b, 3β-(4-Ethoxyphenyl)tropane-2β-carboxylic Acid Methyl Ester] | 1690 ± 50 nM | 1.7 ± 0.4 nM | –
COc1ccc([C@H]2C[C@@H]3CC[C@H]([C@H]2C(=O)OC2CCC2)N3C)cc1 [8c, 3β-(4-Methoxyphenyl)tropane-2β-carboxylic Acid Cyclobutyl Ester] | > 3000 nM | 100 ± 8 nM | –
COc1ccc([C@H]2C[C@@H]3CC[C@H]([C@H]2C(=O)OCCc2ccc(N)c(I)c2)N3C)cc1 [8i, 3β-(4-Methoxyphenyl)tropane-2β-carboxylic Acid 2-(3-Iodo-4-aminophenyl)ethyl Ester] | 2040 ± 300 nM | 3.5 ± 1 nM | –
COc1ccc([C@H]2C[C@@H]3CC[C@H]([C@H]2C(=O)OCCc2ccc(N)cc2)N3C)cc1 [8e, 3β-(4-Methoxyphenyl)tropane-2β-carboxylic Acid 2-(4-Aminophenyl)ethyl Ester] | 2200 ± 300 nM | 8.3 ± 0.4 nM | –
COC(=O)[C@H]1[C@@H](c2cc(I)c(OC)c(I)c2)C[C@@H]2CC[C@H]1N2C [7g, 3β-(3,5-Diiodo-4-methoxyphenyl)tropane-2β-carboxylic Acid Methyl Ester] | > 5000 nM | 7.5 ± 0.8 nM | –
Cc1ccc(-c2cc([C@@H]3C4CCC(C[C@@H]3c3ccc(Cl)cc3)N4C)on2)cc1 (stereo partly drawn) [compound 3, 3β-(4-chlorophenyl)-2β-[3-(4′-methylphenyl)isoxazol-5-yl]tropane] | – | – | Cocaine maintained responding after pretreatment [4]: dose-dependent reduction
COc1ccc([C@H]2C[C@@H]3CC[C@H]([C@H]2C(=O)OCCc2ccc(N)c(Br)c2)N3C)cc1 [8g, 3β-(4-Methoxyphenyl)tropane-2β-carboxylic Acid 2-(3-Bromo-4-aminophenyl)ethyl Ester] | 1850 ± 90 nM | 4.1 ± 0.6 nM | –
COc1ccc([C@H]2C[C@@H]3CC[C@H]([C@H]2C(=O)OCCc2cc(Br)c(N)c(Br)c2)N3C)cc1 [8h, 3β-(4-Methoxyphenyl)tropane-2β-carboxylic Acid 2-(3,5-Dibromo-4-aminophenyl)ethyl Ester] | 2710 ± 250 nM | 2 ± 0.4 nM | –
COC(=O)[C@H]1[C@@H](c2ccc(OC)c(F)c2)C[C@@H]2CC[C@H]1N2C [7c, 3β-(3-Fluoro-4-methoxyphenyl)tropane-2β-carboxylic Acid Methyl Ester] | 270 ± 50 nM | 4.8 ± 0.5 nM | –
COC(=O)[C@H]1[C@@H](c2ccc(Cl)c(C)c2)C[C@@H]2CC[C@H]1N2C [compound 6, 3β-(4-Chloro-3-methylphenyl)tropane-2β-carboxylic acid methyl ester] | – | – | Ki [5]: 21.8 ± 0.6 nM; Ki [6]: 0.95 ± 0.04 nM; Reinforcement effects [7]: did not exhibit any reinforcement effects; DAT occupancy ([8]; at the ED50 for reduction of cocaine self-administration): no detectable; also recorded: below the limits of detection; DAT occupancy ([8]; highest dose tested): greater than 70%; Maintenance of drug self-administration [9]: failed to maintain robust drug self-administration; IC50 [10]: 0.82 ± 0.05 nM
COc1ccc([C@H]2C[C@@H]3CC[C@H]([C@H]2C(=O)OC(C)C)N3C)cc1 [8a, 3β-(4-Methoxyphenyl)tropane-2β-carboxylic Acid Isopropyl Ester] | 2010 ± 200 nM | 135 ± 35 nM | –
COc1ccc([C@H]2C[C@@H]3CC[C@H]([C@H]2c2cc(-c4ccc(C)cc4)no2)N3C)cc1 [compound 9, 3β-(4-Methoxyphenyl)-2β-[3-(4′-methylphenyl)isoxazol-5-yl]tropane] | > 3000 nM | 860 ± 170 nM | –
COC(=O)[C@H]1[C@@H](c2ccc(OC)cc2)C[C@@H]2CC[C@H]1N2C [7a, 3β-(4-Methoxyphenyl)tropane-2β-carboxylic Acid Methyl Ester] | 1110 ± 64 nM | 4.3 ± 0.5 nM | –
COc1ccc([C@H]2C[C@@H]3CC[C@H]([C@H]2C(=O)OC2CC2)N3C)cc1 [8b, 3β-(4-Methoxyphenyl)tropane-2β-carboxylic Acid Cyclopropyl Ester] | 1230 ± 140 nM | 29 ± 3 nM | –
COc1ccc([C@H]2C[C@@H]3CC[C@H]([C@H]2C(=O)OCCc2ccc([N+](=O)[O-])cc2)N3C)cc1 [8d, 3β-(4-Methoxyphenyl)tropane-2β-carboxylic Acid 2-(4-Nitrophenyl)ethyl Ester] | 330 ± 20 nM | 2.9 ± 0.2 nM | –
COc1ccc([C@H]2C[C@@H]3CC[C@H]([C@H]2C(=O)OCCc2ccc(NC(C)=O)cc2)N3C)cc1 [8f, 3β-(4-Methoxyphenyl)tropane-2β-carboxylic Acid 2-(4-Acetylaminophenyl)ethyl Ester] | 1460 ± 30 nM | 5.5 ± 0.5 nM | –
